Test results: patent publication US7132419B2, “Pharmaceutical compounds” (Xenova Limited, priority 2000, dated 2006)

How the values were obtained:
[1] = system: H69 parental (H69/P) human small cell lung carcinoma cell line; test: Cytotoxicity, H69 parental cell line (AlamarBlue); assay type: cell-based; conditions: concentration required to give 50% cell kill, 5–6 days incubation
Protocol: (§1) The cytotoxicity of compounds of formula (I) was measured using the H69 parental (H69/P) human small cell lung carcinoma cell line and the drug resistant human small cell lung carcinoma cell line H69/LX4 which overexpresses P-glycoprotein (Pgp). The cytotoxicity, as measured by the IC50 (concentration required to give 50% cell kill) in the H69/LX4 cell line divided by the cytotoxicity in the H69/P cell line gives an indication of the degree to which a compound is affected by Pgp-dependent MDR and is termed the resistance factor (Rf) of the compound.
(§2) H69/P and H69/LX4 cells were pipetted into 96-well tissue culture plates and then allowed to incubate at 37° C. for 4 h. […] The plates were incubated for 5–6 days before adding AlamarBlue to each well and returning the plates to the incubator for 5–8 h to allow colour development. The cell numbers in the plates at the end of this period were directly proportional to the absorbance measured at a wavelength of 570 nm (reference wavelength 600 nm).

[2] = system: drug resistant human small cell lung carcinoma cell line H69/LX4 which overexpresses P-glycoprotein (Pgp); test: Cytotoxicity, drug resistant H69/LX4 cell line (AlamarBlue); assay type: cell-based; conditions: for IC50: concentration required to give 50% cell kill, 5–6 days incubation; for Rf (resistance factor): IC50 in H69/LX4 divided by IC50 in H69/P, Pgp-dependent MDR
Protocol: as §1, §2

[3] = system: COR-L23 parental (COR-L23/P) human non-small cell lung carcinoma cell line; test: Cytotoxicity, COR-L23 parental cell line (SRB assay); assay type: cell-based; conditions: concentration required to give 50% cell kill, 5–6 days incubation
Protocol: (§3) The cytotoxicity of the compounds described herein was also measured using the COR-L23 parental (COR-L23/P) human non-small cell lung carcinoma cell line and also the drug resistant human non-small cell lung carcinoma cell line COR-L23/R which overexpresses multidrug resistance associated protein (MRP). The cytotoxicity, as measured by the IC50 (concentration required to give 50% cell kill) in the L23/R cell line divided by the cytotoxicity in the L23/P cell line gives an indication of the degree to which a compound may be affected by MRP-dependant MDR and is termed the resistance factor (Rf) of the compound.
(§4) L23/P and L23/R cells were pipetted into 96-well tissue culture plates and then allowed to incubate at 37° C. for 4 h. […] The plates were incubated for 5–6 days before proliferation was assessed using the sulphurhodamine B (SRB) assay as described by Skehan et al, J Natl Cancer Inst 1990, 82, pp 1107–1112.

[4] = Cytotoxicity, drug resistant COR-L23/R cell line (SRB assay); assay type: cell-based, human; conditions: Homo sapiens, COR-L23/R; concentration required to give 50% cell kill; 5–6 days incubation
Protocol: as §3, §4

[5] = system: drug resistant human non-small cell lung carcinoma cell line COR-L23/R which overexpresses multidrug resistance associated protein (MRP); test: as above; assay type: cell-based; conditions: for Rf (resistance factor): IC50 in L23/R divided by IC50 in L23/P, MRP-dependant MDR
Protocol: as §3, §4

[6] = system: Jurkat human leukaemia cell line (JLC); test: Cytotoxicity, Jurkat leukaemia cell line JLC; assay type: cell-based; conditions: concentration required to give 50% cell kill
Protocol: (§5) The cytotoxicity of the compounds described herein was also measured using the Jurkat human leukaemia cell line (JLC) and also the amsacrine-resistant Jurkat human leukaemia cell line (JLA) and the doxorubicin-resistant Jurkat human leukaemia cell line (JLD). The cytotoxicity, as measured by the IC50 (concentration required to give 50% cell kill) in the JLA or JLD cell line divided by the cytotoxicity in the JLC cell line gives an indication of the degree to which a compound may be affected by atypical drug resistance and is termed the resistance factor (Rf) of the compound. The method used has been described previously (Finlay et al, Eur J. Cancer 32A, 708–714, 1996). Compounds were active in the range 1 nM to 5 μM.

[7] = system: amsacrine-resistant Jurkat human leukaemia cell line (JLA); test: Cytotoxicity, amsacrine-resistant Jurkat cell line JLA; assay type: cell-based; conditions: for IC50: concentration required to give 50% cell kill; for Rf (JLA/JLC): IC50 in JLA divided by IC50 in JLC, atypical drug resistance
Protocol: as §5

[8] = system: doxorubicin-resistant Jurkat human leukaemia cell line (JLD); test: Cytotoxicity, doxorubicin-resistant Jurkat cell line JLD; assay type: cell-based; conditions: for IC50: concentration required to give 50% cell kill; for Rf (JLD/JLC): IC50 in JLD divided by IC50 in JLC, atypical drug resistance
Protocol: as §5

topoisomerase I = molecular target: T1, topoisomerase I (Homo sapiens, UniProt P11387); test: Stabilisation of cleavable complexes, topoisomerase I; assay type: biochemical; conditions: range where an increase in cleavable complexes was observed relative to controls in the absence of drug
T1 sequence (P11387 1-765): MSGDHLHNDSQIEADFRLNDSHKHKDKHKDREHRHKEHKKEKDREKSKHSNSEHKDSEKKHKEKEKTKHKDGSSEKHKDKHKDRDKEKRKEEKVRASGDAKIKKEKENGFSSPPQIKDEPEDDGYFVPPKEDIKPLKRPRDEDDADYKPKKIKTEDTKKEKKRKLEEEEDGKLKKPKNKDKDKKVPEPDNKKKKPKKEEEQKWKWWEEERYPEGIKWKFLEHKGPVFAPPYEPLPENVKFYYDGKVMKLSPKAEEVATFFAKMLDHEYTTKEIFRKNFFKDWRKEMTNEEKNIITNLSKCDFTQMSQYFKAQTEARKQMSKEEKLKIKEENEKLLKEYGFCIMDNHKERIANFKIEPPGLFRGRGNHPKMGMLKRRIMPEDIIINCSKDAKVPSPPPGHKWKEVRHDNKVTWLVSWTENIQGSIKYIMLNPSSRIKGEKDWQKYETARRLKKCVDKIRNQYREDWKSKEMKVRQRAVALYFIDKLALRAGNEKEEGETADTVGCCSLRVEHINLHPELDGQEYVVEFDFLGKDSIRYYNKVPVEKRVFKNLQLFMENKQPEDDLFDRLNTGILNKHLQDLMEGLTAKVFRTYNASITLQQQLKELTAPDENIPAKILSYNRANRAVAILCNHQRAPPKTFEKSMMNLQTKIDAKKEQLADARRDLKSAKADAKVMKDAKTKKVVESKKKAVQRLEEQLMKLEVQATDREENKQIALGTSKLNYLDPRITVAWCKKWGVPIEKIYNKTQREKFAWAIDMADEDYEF
Source text: (§6) Compounds were also studied for their ability to stabilize cleavable complexes in the presence of either topoisomerase I or II essentially as described previously (Finlay et al, Eur J. Cancer 32A, 708–714, 1996). Presence of cleavable complexes was indicated by an increase in the number and intensity of bands observed after electrophoresis and autoradiography. The results are expressed as the effective concentration range where an increase in cleavable complexes was observed relative to controls in the absence of drug.

topoisomerase II = test: Stabilisation of cleavable complexes, topoisomerase II; assay type: biochemical; conditions: range where an increase in cleavable complexes was observed relative to controls in the absence of drug
Source text: as §6

| Structure (SMILES) | IC50 ([1]; Homo sapiens) [nM] | IC50 ([2]; Homo sapiens) [nM] | Rf (resistance factor) [2] | IC50 ([3]; Homo sapiens, COR-L23) [nM] | IC50 [4] [nM] | Rf (resistance factor) [5] | IC50 ([6]; Homo sapiens, Jurkat) [nM] | IC50 ([7]; Homo sapiens, Jurkat) [nM] | Rf (JLA/JLC) [7] | IC50 ([8]; Homo sapiens, Jurkat) [nM] | Rf (JLD/JLC) [8] | Effective concentration range, Topoisomerase I (topoisomerase I) [µM] | Effective concentration range, Topoisomerase II (topoisomerase II) [µM] | IC50 [1] [nM] | IC50 [2] [nM] | IC50 [3] [nM] | IC50 ([5]; concentration required to give 50% cell kill, 5–6 days incubation) [nM] | IC50 [6] [nM] | IC50 [7] [nM] | IC50 [8] [nM] |
| --- | --- | --- | --- | --- | --- | --- | --- | --- | --- | --- | --- | --- | --- | --- | --- | --- | --- | --- | --- | --- |
| COc1cccc2c1ccc1nc3cccc(C(=O)NCCN(C)C)c3nc12 [Compound 3, 4-Methoxy-benzo[a]phenazine-11-carboxylic acid (2-dimethylamino-ethyl)-amide] | 35 | 49 | 1.4 | 14.4 | 19.9 | 1.4 | 27 | 21.6 | 0.8 | 24.3 | 0.9 | 0.1 to 3.0 | 0.1 to 3.0 |  |  |  |  |  |  |  |
| COc1cccc2c1ccc1nc3cccc(C(=O)N[C@H](C)CN(C)C)c3nc12 [Compound 78, 4-Methoxy-benzo[a]phenazine-11-carboxylic acid (2-dimethylamino-1-(R)-methyl-ethyl)-amide] | 24 | 31 | 1.3 | 7.6 | 8.9 | 1.2 | 21 | 14 | 0.7 | 17 | 0.8 | 0.03 to 1.0 | 0.03 to 1.0 |  |  |  |  |  |  |  |
| CN(C)CCNc1nc2cc(O)ccc2c2c1C(=O)c1ccccc1-2 [TAS-103, reference compound] |  |  | 1.1 |  |  | 1.3 |  |  | 55.9 |  | 71.1 | 0.3 to 10.0 | 0.3 to 10.0 | 21 | 22 | 16.3 | 22 | 5.4 | 302 | 384 |
